This is an account of results in patent US5631263A, “Use of delta opioid receptor antagonists to treat immunoregulatory disorders” (Minneapolis Medical Research Foundation, priority 1995, dated 1997).

Where a name gives a salt, the structure may show the parent alone.

One test deals with mu opioid receptors. Also on record: key to Ke, M: No agonist antagonism observed. Particulars: GPI, cited from earlier work; for Kb: read-out: Ke, M (morphine), agonist morphine, antagonist 100 or 200 nM, 15 min.
The target of another test is T1, δ opioid receptor (Mus musculus, UniProt P32300).
T1 construct: Both vasa deferentia were dissected out of mice; from tissue; host or cells: mouse vas deferens (isolated, electrically stimulated)
T1 sequence (P32300 whole entry): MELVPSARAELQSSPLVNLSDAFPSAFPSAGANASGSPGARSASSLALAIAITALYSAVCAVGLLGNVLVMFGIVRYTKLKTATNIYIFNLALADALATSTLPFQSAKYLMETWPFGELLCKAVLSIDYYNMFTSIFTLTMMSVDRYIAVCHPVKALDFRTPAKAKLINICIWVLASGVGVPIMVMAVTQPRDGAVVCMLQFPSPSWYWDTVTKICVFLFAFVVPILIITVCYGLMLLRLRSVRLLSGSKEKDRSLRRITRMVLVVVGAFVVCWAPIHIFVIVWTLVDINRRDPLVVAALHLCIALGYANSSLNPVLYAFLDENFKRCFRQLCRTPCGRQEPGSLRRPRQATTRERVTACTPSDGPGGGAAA
Nature of the test: antagonism of DADLE on MVD preparations (Example 7). It is filed as cell-based. The note with it: for IC50 ratio (DADLE): MVD, 100 nM of each compound, NTI = 20 nM, 15 min. As to the method: 2. Mouse Vas Deferens (MVD). […] The organ bath was maintained at 37° C.
Concentration-response curves were obtained in the absence (control) and the presence of the antagonist are expressed as IC50 values. […] Therefore, a high IC50 ratio represents a correspondingly high degree of antagonism at a particular receptor. […] Therefore, a low Ke represents a correspondingly high degree of binding at a particular receptor.

For another test, the target named is kappa opioid receptors. Also on record: key to Ke, EK: No agonist antagonism observed. The note with it: GPI, cited from earlier work; for Kb: agonist ethylketazocine, antagonist 100 or 200 nM, 15 min, read-out: Ke, EK.
The target of test [1] is T2, delta opioid receptors (Mus musculus, UniProt P32300). Nature of the test: antagonism of DADLE in the mouse vas deferens (MVD) preparation. Particulars: compared with 1 or its congeners.
T2 sequence (P32300 whole entry): as above
Procedure: Mouse Vas Deferens (MVD). […] Both vasa deferentia were dissected out of mice and mounted singly through two platinum ring electrodes in a 10 ml organ bath. The bath contained Krebs bicarbonate solution that was continuously bubbled with 95% O2 and 5% CO2. The organ bath was maintained at 37° C. The tissue was attached to an isometric transducer and stimulated transmurally with rectangular pulses (0.1 Mz, 1 ms duration, supramaximal voltage). Drugs were added cumulatively to the bath in 10- to 50-μL amounts and washed out after noting their maximum effect.
The compounds were tested in vitro on the mouse vas deferens (MVD) and guinea pig ileum (GPI) preparations. […] The IC50 value was divided by the control IC50 value in the same tissue, and this IC50 ratio (DR) was employed to calculate the Ke value using the equation Ke=[antagonist]/(DR-1).
In another test the test system is guinea pig ileum (GPI). The note with it: standard result; cited from earlier work.
The target of a further test is μ opioid receptor (Cavia porcellus, UniProt A0ACM8Q262). The experiment in a line: antagonism of morphine in the GPI (Example 7). The format is cell-based, guinea pig. The note with it: morphine as agonist, read-out: Ke, μ (Table VII). Here is the method:
1. Guinea Pig Ileal Longitudinal Muscle (GPI). Ilea from guinea pigs were taken approximately 10 cm from the ileocaecal junction, and a strip of longitudinal muscle with the myenteric plexus attached was prepared by method of Rang et al., Brit. J. Pharmacol., 22, 356 (1964), the disclosure of which is incorporated by reference herein. A 1 cm portion of this strip was then mounted between two platinum electrodes placed in a 10 ml organ bath and connected to an isometric transducer. Contractions were recorded on a polygraph. […] The organ bath was maintained at 36°-37° C. The longitudinal muscle strip was allowed to equilibrate with continuous stimulation for a minimum of 90 min.

Test [2] has as its target T2, delta opioid receptors. Also on record: key: No agonist antagonism observed. Particulars: MVD; compound 7 tested at 5 nM or less; cited from earlier work.
The test system of test [3] is mouse vas deferens (MVD) and guinea pig ileum (GPI) preparations. The note with it: cited from earlier work.
[4] abbreviates: compound 7 tested at 5 nM or less.

Chain of μ opioid receptor (A0ACM8Q262 1-400): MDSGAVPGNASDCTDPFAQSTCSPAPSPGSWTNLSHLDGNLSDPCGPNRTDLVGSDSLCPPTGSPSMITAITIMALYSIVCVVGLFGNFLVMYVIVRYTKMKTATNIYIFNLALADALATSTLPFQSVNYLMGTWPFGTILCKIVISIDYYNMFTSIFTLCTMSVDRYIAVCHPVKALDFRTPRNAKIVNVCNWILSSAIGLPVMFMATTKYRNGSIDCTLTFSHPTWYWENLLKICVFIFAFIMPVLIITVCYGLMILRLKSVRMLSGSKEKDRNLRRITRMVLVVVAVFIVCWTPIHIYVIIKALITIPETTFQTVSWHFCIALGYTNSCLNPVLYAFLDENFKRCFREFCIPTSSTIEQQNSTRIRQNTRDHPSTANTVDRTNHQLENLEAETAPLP

For the compound `COc1cccc2c3c([nH]c12)[C@@H]1Oc2c(O)ccc4c2[C@@]12CCN(CC1CC1)[C@H](C4)[C@]2(O)C3` [Compound 14], the Kb on mu opioid receptors is 35 nM.

Consider `O=C1/C(=C/c2cccc(F)c2)C[C@@]2(O)[C@H]3Cc4ccc(O)c5c4[C@@]2(CCN3CC2CC2)[C@H]1O5` [IIh], for which, on δ opioid receptor, the Kb was 14 nM and the “IC50 ratio (DADLE)” value is given as 7.87.

For the compound `Oc1ccc2[nH]c3c(c2c1)C[C@@]1(O)[C@H]2Cc4ccc(O)c5c4[C@@]1(CCN2CC1CC1)[C@H]3O5` [Compound 9], the Kb at mu opioid receptors was 27.2 nM; on kappa opioid receptors, 68.5 nM.

With `Oc1ccc2c3c1O[C@H]1c4[nH]c5ccc(F)cc5c4C[C@@]4(O)[C@@H](C2)N(CC2CC2)CC[C@]314` [Compound 3], the Kb is 61.7 nM at mu opioid receptors and 46.2 nM on kappa opioid receptors.

Consider `COc1ccc2[nH]c3c(c2c1)C[C@@]1(O)[C@H]2Cc4ccc(O)c5c4[C@@]1(CCN2CC1CC1)[C@H]3O5` [Compound 4], for which the Kb at mu opioid receptors was 63 nM; at kappa opioid receptors, 12.6 nM.

For `O=C1/C(=C/c2ccc([N+](=O)[O-])cc2)C[C@@]2(O)[C@H]3Cc4ccc(O)c5c4[C@@]2(CCN3CC2CC2)[C@H]1O5` [IIa, E-7-(4-Nitrobenzylideno)naltrexone hydrochloride], on δ opioid receptor, the Kb is 111 nM and the “IC50 ratio (DADLE)” value is recorded as 1.90.

With `O=C1/C(=C/c2cccc3ccccc23)C[C@@]2(O)[C@H]3Cc4ccc(O)c5c4[C@@]2(CCN3CC2CC2)[C@H]1O5` [IIl], at δ opioid receptor, the Kb was determined as 8.5 nM and the “IC50 ratio (DADLE)” value was determined as 12.7.

As to `Cc1ccc2[nH]c3c(c2c1)C[C@@]1(O)[C@H]2Cc4ccc(O)c5c4[C@@]1(CCN2CC1CC1)[C@H]3O5` [Compound 5], the Kb on mu opioid receptors is more than 160 nM; at kappa opioid receptors, more than 250 nM.

In the case of `O=C1/C(=C/c2ccc(F)cc2)C[C@@]2(O)[C@H]3Cc4ccc(O)c5c4[C@@]2(CCN3CC2CC2)[C@H]1O5` [IIg], at δ opioid receptor, the Kb was found to be 77 nM and the “IC50 ratio (DADLE)” value turned out to be 2.29.

As to `Oc1ccc2c3c1O[C@H]1c4oc5ccccc5c4C[C@@]4(O)[C@@H](C2)N(CC2CC2)CC[C@]314` [Compound 8, (17-cyclopropylmethyl)-6,7-dehydro-3,14β-dihydroxy-4,5α-epoxy-6,7-2',3'-benzo[b]furanomorphinan], the Kb at mu opioid receptors was 30.8 nM; at kappa opioid receptors, 50.8 nM. On delta opioid receptors [1], the “delta antagonist potency / selectivity in words” value is “less potent and less selective than 1 as a delta antagonist, nevertheless retains substantial delta antagonist activity”.

Take `Oc1ccc2c3c1O[C@H]1c4nc5ccccc5nc4C[C@@]4(O)[C@@H](C2)N(CC2CC2)CC[C@]314` [Compound 16]: the values for the Kb at mu opioid receptors and on kappa opioid receptors were 6.1 nM and 13.4 nM, respectively. In addition, the “delta antagonist potency / selectivity in words” value on delta opioid receptors [1] was “A similar relationship was observed”.

Take `O=C1/C(=C/c2ccccc2F)C[C@@]2(O)[C@H]3Cc4ccc(O)c5c4[C@@]2(CCN3CC2CC2)[C@H]1O5` [IIi]: at δ opioid receptor, the Kb came to 20 nM and the “IC50 ratio (DADLE)” value was 6.01.

With `COc1ccc(/C=C2\C[C@@]3(O)[C@H]4Cc5ccc(O)c6c5[C@@]3(CCN4CC3CC3)[C@@H](O6)C2=O)cc1` [IIc], on δ opioid receptor, the Kb stood at 22 nM and the “IC50 ratio (DADLE)” value is 5.52.

`O=[N+]([O-])c1ccc2[nH]c3c(c2c1)C[C@@]1(O)[C@H]2Cc4ccc(O)c5c4[C@@]1(CCN2CC1CC1)[C@H]3O5` [Compound 6]: the Kb is 92 nM at mu opioid receptors and not below 200 nM at kappa opioid receptors.

With `Cc1cccc2c3c([nH]c12)[C@@H]1Oc2c(O)ccc4c2[C@@]12CCN(CC1CC1)[C@H](C4)[C@]2(O)C3` [Compound 13], the Kb at mu opioid receptors was 19.1 nM; at kappa opioid receptors it was more than 330 nM.

Regarding `O=C1/C(=C/c2ccccc2Cl)C[C@@]2(O)[C@H]3Cc4ccc(O)c5c4[C@@]2(CCN3CC2CC2)[C@H]1O5` [IIj], at δ opioid receptor, the Kb was 0.76 nM and the “IC50 ratio (DADLE)” value stood at 130.

For the compound `O=C1/C(=C/c2ccc3ccccc3c2)C[C@@]2(O)[C@H]3Cc4ccc(O)c5c4[C@@]2(CCN3CC2CC2)[C@H]1O5` [IIm], at δ opioid receptor, the Kb turned out to be 9.4 nM and the “IC50 ratio (DADLE)” value is on record as 11.6.

For the compound `Oc1ccc2c3c1O[C@H]1c4nc5ccccc5cc4C[C@@]4(O)[C@@H](C2)N(CC2CC2)CC[C@]314` [Compound 17], the Kb on mu opioid receptors was 11.3 nM; on kappa opioid receptors, 16.3 nM. At delta opioid receptors [1], the “delta antagonist potency / selectivity in words” value is recorded as “A similar relationship was observed”.

On to `O=C1/C(=C/c2cccc([N+](=O)[O-])c2)C[C@@]2(O)[C@H]3Cc4ccc(O)c5c4[C@@]2(CCN3CC2CC2)[C@H]1O5` [IIb], for which, on δ opioid receptor, the Kb turned out to be 20 nM and the “IC50 ratio (DADLE)” value came out at 5.97.

`COc1ccccc1/C=C1\C[C@@]2(O)[C@H]3Cc4ccc(O)c5c4[C@@]2(CCN3CC2CC2)[C@@H](O5)C1=O` [IIe]: at δ opioid receptor, the Kb was 0.84 nM and the “IC50 ratio (DADLE)” value came to 120.

Take `Cn1c2c(c3ccccc31)C[C@@]1(O)[C@H]3Cc4ccc(O)c5c4[C@@]1(CCN3CC1CC1)[C@H]2O5` [Compound 2]: the Kb on mu opioid receptors is 12.5 nM; on kappa opioid receptors, 22.2 nM.

As to `O=C1CC[C@@]2(O)[C@H]3Cc4ccc(O)c5c4[C@@]2(CCN3CC2CC2)[C@H]1O5` [Naltrexone, naltrexone, reference compound], the “block of morphine's effects” value in the test on guinea pig ileum (GPI) is “block morphine's effects”. Further, the Kb at μ opioid receptor turned out to be 1 nM.

On to `CN1CC[C@]23c4c5ccc(O)c4O[C@H]2c2[nH]c4ccccc4c2C[C@@]3(O)[C@H]1C5` [Compound 7], for which, in the test on mu opioid receptors (setting [4]), the “Ke, M” value is recorded as “e”. Also, at delta opioid receptors [2], the “Ke, DADLE” value was “e”. Moreover, the “Ke, EK” value with kappa opioid receptors (setting [4]) is “e”. The “antagonist activity of compound 7” value in test [3] (at 5 nM) was “inactive”. The agonist activity result in test [3] (in words) is “partial agonist activity”.

In the case of `Oc1ccc2c3c1O[C@H]1c4[nH]c5c(F)cccc5c4C[C@@]4(O)[C@@H](C2)N(CC2CC2)CC[C@]314` [Compound 11], the Kb on mu opioid receptors was 5.3 nM; on kappa opioid receptors it was more than 330 nM.

Turning to `Oc1ccc2c3c1O[C@H]1c4[nH]c5cccc(F)c5c4C[C@@]4(O)[C@@H](C2)N(CC2CC2)CC[C@]314` [Compound 10], the Kb was more than 125 nM at mu opioid receptors and more than 170 nM on kappa opioid receptors.
